Assay results as given in publication PMC11249646, “Small-Molecule Disruptors of the Interaction between Calcium- and Integrin-Binding Protein 1 and Integrin αIIbβ3 as Novel Antiplatelet Agents” (ACS Pharmacology & Translational Science, 2024).
Like-named read-outs stand apart in the source and are kept apart here.

Legend:
[1] = target: T1, GST-CIB1 : F-scrambled peptide (Homo sapiens, UniProt Q99828); assay: FP scrambled-peptide counter screen, 1536-well format; type: binding; conditions: for Curve Class (counterscreen) / COUNTERSCREEN Curve Class: qHTS curve class; for IC50: read-out: IC50 [μM] (counterscreen)
T1 construct: made in house; host or cells: BL-21 plus RIL cells (E. coli)
T1 sequence (Q99828 1-191): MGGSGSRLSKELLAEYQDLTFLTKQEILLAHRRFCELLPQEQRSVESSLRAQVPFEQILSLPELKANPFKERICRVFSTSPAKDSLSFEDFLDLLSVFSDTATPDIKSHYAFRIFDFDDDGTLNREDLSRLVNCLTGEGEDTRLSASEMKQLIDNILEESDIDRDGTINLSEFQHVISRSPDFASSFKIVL

[2] = target: T2, CIB1 and αIIb interaction (CIB1-GST : F-αIIb peptide) (Homo sapiens, UniProt Q99828); assay: FP assay, 1536-well qHTS format (primary and confirmatory screen); type: binding; conditions: for Curve Class (confirmatory screen) / CONFIRMATORY SCREEN Curve Class: qHTS curve class
T2 construct: made in house; host or cells: BL-21 plus RIL cells (E. coli)
T2 sequence (Q99828 1-191): T1 sequence (Q99828 1-191)

[3] = Table S3, counterscreen, YES/NO call
[4] = Table S3, counterscreen, a negative sign marks inhibitory curves
[5] = Table S3, counterscreen, negative = inhibition
[6] = Table S3, confirmatory screen, a negative sign marks inhibitory curves
[7] = Table S3, confirmatory screen, negative = inhibition
[8] = qHTS FP screen hits, Table S2, negative = inhibition
[9] = qHTS FP screen hits, Table S2, one class per curve where COUNT > 1, negative sign = inhibitory curve
[10] = qHTS FP screen hits, Table S2, read-out: IC50
[11] = counterscreen, negative sign = inhibitory curve
[12] = confirmatory screen, negative sign = inhibitory curve
[13] = confirmatory screen, read-out: IC50 [μM] (confirmatory screen)
[14] = qHTS primary screen hits, Table S2, negative = inhibition
[15] = qHTS primary screen hits, Table S2, negative sign = inhibitory curve, several classes where COUNT > 1
[16] = qHTS primary screen hits, Table S2, read-out: IC50
[17] = Table S3, confirmatory screen, YES/NO call
[18] = Table S3, confirmatory screen, read-out: IC50 [μM] (confirmatory screen)
[19] = scrambled-peptide counterscreen
[20] = scrambled-peptide counterscreen, YES/NO call
[21] = confirmatory screen, YES/NO call
[22] = confirmatory screen, negative = inhibition
[23] = qHTS primary screen hits, Table S2, negative sign = inhibitory curve

| Structure (SMILES) | Curve Class (counterscreen) [1, 4] | Efficacy (%) (counterscreen) [1, 5] | IC50 ([1]; Table S3, counterscreen) [µM] | Curve Class (confirmatory screen) [2, 6] | Efficacy (%) (confirmatory screen) [2, 7] | Efficacy (%) [2, 8] [%] | IC50 [2, 10] [µM] | Efficacy (%) [2, 14] [%] | Curve Class [2, 15] | IC50 [2, 16] [µM] | also measured |
| --- | --- | --- | --- | --- | --- | --- | --- | --- | --- | --- | --- |
| O=C(NCCCN1CCNCC1)c1cccc(-c2cc(O)c3ncccc3c2)c1.O=C(O)C(F)(F)F [NCGC00244531-01] | -1.2 | -52 | 35.5 | 4 | -33 | -46 | 39.8 | – | – | – | Confirm? (counterscreen) [1, 3]: YES; Curve Class [2, 9]: -2.2 |
| COc1ccc(CC(=O)Nc2ccc(S(=O)(=O)Nc3cc(C)on3)cc2)cc1C.O=C(O)C(F)(F)F [NCGC00244861-01] | – | – | – | – | – | – | – | -19 | -1.4 | 11.2 | Efficacy (%) (counterscreen) ([1]; counterscreen): -14%; Confirm? (counterscreen) ([1]; counterscreen, YES/NO): YES; Curve Class (counterscreen) [1, 11]: 4; Efficacy (%) (confirmatory screen) ([2]; confirmatory screen): -69%; Confirm? (confirmatory screen) ([2]; confirmatory screen, YES/NO): YES; Curve Class (confirmatory screen) [2, 12]: -2.4; IC50 [2, 13]: 39.8 µM |
| Cc1cc(NS(=O)(=O)c2ccc(NC(=O)Cc3ccc(F)c(Cl)c3)cc2)no1.O=C(O)C(F)(F)F [NCGC00244873-01] | – | – | – | – | – | -25 | 10 | – | – | – | COUNTERSCREEN Efficacy (%) ([1]; counterscreen): -17%; COUNTERSCREEN Curve Class ([1]; counterscreen): 4; CONFIRMATORY SCREEN Efficacy (%) ([2]; confirmatory screen): -48%; CONFIRMATORY SCREEN Curve Class ([2]; confirmatory screen): 4 |
| Cc1cc(NS(=O)(=O)c2ccc(NC(=O)Cc3cccc4ccccc34)cc2)no1.O=C(O)C(F)(F)F [NCGC00244880-01] | -2.2 | -64 | 20 | -2.2 | -48 | – | – | -21 | -1.4 | 17.8 | Confirm? (confirmatory screen) [2, 17]: YES; IC50 [2, 18]: 31.6 µM |
| Cc1coc2c1C(=O)C(=O)c1c-2ccc2c(C)cccc12 [NCGC00247624-03] | – | – | – | – | – | -40 | 39.8 | – | – | – | Efficacy (%) (counterscreen) ([1]; counterscreen): -73%; Curve Class (counterscreen) [1, 11]: -2.2; IC50 ([1]; counterscreen): 44.7 µM; Efficacy (%) (confirmatory screen) ([2]; confirmatory screen): -85%; Confirm? (confirmatory screen) ([2]; confirmatory screen, YES/NO): YES; Curve Class (confirmatory screen) [2, 12]: -2.2; Curve Class [2, 9]: -2.2 |
| CN(C)CCc1c[nH]c2cccc(O)c12 [NCGC00247728-01] | -2.1 | -126 | 89.1 | -2.2 | -101 | – | – | -105 | -2.3 | 28.2 | Confirm? (confirmatory screen) [2, 17]: YES; IC50 [2, 18]: 112 µM |
| CN(C)CC1CCCN(C2CCN(C(=O)c3cccc(-c4cc(O)c5ncccc5c4)c3)CC2)C1.O=C(O)C(F)(F)F (stereo not drawn) [NCGC00247737-01] | -2.2 | -46 | 39.8 | 4 | -41 | -45 | 22.4 | – | – | – | Confirm? (counterscreen) [1, 3]: YES; Curve Class [2, 9]: -1.2 |
| CN(C)CCCCCCNC(=O)c1cccc(-c2cc(O)c3ncccc3c2)c1.O=C(O)C(F)(F)F [NCGC00247743-01] | -2.4 | -55 | 44.7 | 4 | -35 | – | – | -33 | -1.2 | 22.4 | Confirm? (counterscreen) [1, 3]: YES |
| O=C(Nc1nc(-c2ccccc2)cs1)c1ccccc1NS(=O)(=O)c1ccc(F)cc1.O=C(O)C(F)(F)F [NCGC00247844-02] | – | 102 | 50.1 | 3 | 48 | – | – | -24 | -1.4 | 17.8 | – |
| O=C(Cc1ccc(Cl)c(Cl)c1)Nc1ccc(S(=O)(=O)Nc2nncs2)cc1.O=C(O)C(F)(F)F [NCGC00248349-02] | – | – | – | – | – | – | – | -24 | – | 11.2 | COUNTERSCREEN Efficacy (%) [1, 19]: 12%; COUNTERSCREEN Confirm? [1, 20]: YES; COUNTERSCREEN Curve Class [1, 19]: 4; CONFIRMATORY SCREEN Confirm? [2, 21]: YES; CONFIRMATORY SCREEN Curve Class [2, 12]: -1.4; CONFIRMATORY SCREEN Efficacy (%) [2, 22]: -31%; IC50 ([2]; confirmatory screen, read-out: CONFIRMATORY SCREEN IC50): 12.6 µM; Curve Class [2, 23]: -1.4 |
| O=C(Cc1ccc(Cl)c(Cl)c1)Nc1ccc(S(=O)(=O)Nc2cccc(C(=O)O)c2)cc1.O=C(O)C(F)(F)F [NCGC00248362-01] | – | – | – | – | – | – | – | -20 | – | 12.6 | COUNTERSCREEN Efficacy (%) [1, 19]: 26%; COUNTERSCREEN Confirm? [1, 20]: YES; COUNTERSCREEN Curve Class [1, 19]: 4; CONFIRMATORY SCREEN Confirm? [2, 21]: YES; CONFIRMATORY SCREEN Curve Class [2, 12]: -1.4; CONFIRMATORY SCREEN Efficacy (%) [2, 22]: -27%; Curve Class [2, 23]: -1.4 |
| O=C(Cc1ccc(Cl)c(Cl)c1)Nc1ccc(S(=O)(=O)Nc2cnccn2)cc1.O=C(O)C(F)(F)F [NCGC00248365-02] | – | – | – | – | – | -26 | 17.8 | – | – | – | Efficacy (%) (counterscreen) ([1]; counterscreen): -24%; Confirm? (counterscreen) ([1]; counterscreen, YES/NO): YES; Curve Class (counterscreen) [1, 11]: 4; Efficacy (%) (confirmatory screen) ([2]; confirmatory screen): -30%; Confirm? (confirmatory screen) ([2]; confirmatory screen, YES/NO): YES; Curve Class (confirmatory screen) [2, 12]: -1.4 |
| Cc1c2c(=O)n(-c3ccccc3)[nH]c2cc(=O)n1-c1cccnc1.O=C(O)C(F)(F)F [NCGC00248472-01] | -2.2 | -60 | 39.8 | 4 | -23 | -31 | 39.8 | – | – | – | Confirm? (counterscreen) [1, 3]: YES |
| O=C(c1cc(O)c(O)c(O)c1)c1ccc(O)c(O)c1O [NCGC00249050-02] | -1.1 | -99 | 25.1 | -2.1 | -86 | – | – | -42 | -2.2 | 39.8 | Confirm? (confirmatory screen) [2, 17]: YES; IC50 [2, 18]: 25.1 µM |
| CCN1CCN(c2ccc(Nc3ccc(-c4ccc(C(N)=O)cc4)n4ncnc34)cc2)CC1.O=C(O)C(F)(F)F [NCGC00249351-01] | – | – | – | – | – | -39 | 35.5 | – | – | – | Efficacy (%) (counterscreen) ([1]; counterscreen): -68%; Curve Class (counterscreen) [1, 11]: -2.2; IC50 ([1]; counterscreen): 50.1 µM; Efficacy (%) (confirmatory screen) ([2]; confirmatory screen): -64%; Confirm? (confirmatory screen) ([2]; confirmatory screen, YES/NO): YES; Curve Class (confirmatory screen) [2, 12]: -2.4; IC50 [2, 13]: 22.4 µM; Curve Class [2, 9]: -2.2 |
| O=C(Nc1ccc(S(=O)(=O)N2CCOCC2)cc1)c1cc(Cl)ccc1NS(=O)(=O)c1ccc(Cl)s1.O=C(O)C(F)(F)F [NCGC00249417-01] | – | 163 | 79.4 | 4 | -31 | – | – | – | – | – | – |
| O=C(O)C(F)(F)F.c1ccc(-n2ccc(-c3nnc4n3CCCCC4)c2)cc1 [NCGC00249645-01] | – | – | – | – | – | -91 | 79.4 | – | – | – | Efficacy (%) (counterscreen) ([1]; counterscreen): -62%; Curve Class (counterscreen) [1, 11]: -3; IC50 ([1]; counterscreen): 89.1 µM; Efficacy (%) (confirmatory screen) ([2]; confirmatory screen): -104%; Confirm? (confirmatory screen) ([2]; confirmatory screen, YES/NO): YES; Curve Class (confirmatory screen) [2, 12]: -2.1; IC50 [2, 13]: 50.1 µM; Curve Class [2, 9]: -2.2 |
| CC(C)(O)CCc1ccc(OCc2cc(-c3cccc(OC(F)F)c3)c3ncccc3c2)cc1 [NCGC00249759-02] | 4 | -28 | – | 4 | -25 | – | – | -59 | -2.2 | 24.1 | – |
| Cc1ccc([N+](=O)[O-])[c]2c1[O][Hg]2 [NCGC00249897-01] | – | 111 | – | 4 | 0 | – | – | -49 | -1.4 | 3.5 | – |
| COC(=O)c1cc(Cl)ccc1NS(=O)(=O)C(F)(F)F [NCGC00249937-01] | 4 | -16 | – | 4 | 12 | – | – | -64 | -2.2 | 44.7 | – |
| Cc1ccc(C)n1-c1sccc1C(=O)O [NCGC00253437-01] | – | – | – | – | – | – | – | -59 | -2.2 | 44.7 | Efficacy (%) (counterscreen) ([1]; counterscreen): -36%; Confirm? (counterscreen) ([1]; counterscreen, YES/NO): YES; Curve Class (counterscreen) [1, 11]: -1.2; IC50 ([1]; counterscreen): 7.9 µM; Efficacy (%) (confirmatory screen) ([2]; confirmatory screen): -97%; Confirm? (confirmatory screen) ([2]; confirmatory screen, YES/NO): YES; Curve Class (confirmatory screen) [2, 12]: -1.1; IC50 [2, 13]: 22.4 µM |
| N#Cc1ccc(NS(=O)(=O)c2ccc(NC(=O)Cc3ccc(Cl)c(Cl)c3)cc2)cc1.O=C(O)C(F)(F)F [NCGC00253445-01] | – | 202 | 70.8 | 2.3 | 146 | – | – | – | – | – | – |
